Earlier results in PubChem BioAssay AID1259410 (Chemical Carcinogenesis Research Information System (CCRIS), 2018).

Tested on: rodent tumor promotion studies, tumor incidence
Experiment: CCRIS tumor promotion studies
[1] = Carcinogen: 7,12-DIMETHYLBENZ(A)ANTHRACENE, Doses [Carcinogen]: TOP, Route [Carcinogen]: DERMAL, Route [Promoter]: DERMAL, Species: MOUSE, Strain/Sex: FEMALE

Oc1ccccc1O
outcome (Carcinogen: DIETHYLNITROSAMINE, 55-18-5, N-METHYL-N-NITROSOUREA, 684-93-5, 1,2-DIMETHYLHYDRAZINE, 540-73-8, N-BUTYL-N-(4-HYDRO, Carcinogen: DIETHYLNITROSAMINE, 55-18-5, N-METHYL-N-NITROSOUREA, 684-93-5, 1,2-DIMETHYLHYDRAZINE, 540-73-8, N-BUTYL-N-(4-HYDRO, Doses [Carcinogen]: 100 MG/KG BW DEN ONCE THEN 20 MG/KG BW MNU 1/D FOR 4 D FOLLOWED BY 40 MG/KG BW DMH 1/D FOR 4 D, 0.05% BHBN IN DRINKING W, Doses [Promoter]: 0, 0.8% IN DIET FOR 24 WK BEGINNING 3 D POST CARCINOGEN TREATMENT (STUDY DURATION: 28 WK), Route [Carcinogen]: INTRAPERITONEAL, INTRAPERITONEAL, SUBCUTANEOUS, ORAL, Route [Carcinogen]: INTRAPERITONEAL, INTRAPERITONEAL, SUBCUTANEOUS, ORAL, Route [Promoter]: ORAL, Species: RAT, Strain/Sex: F344/MALE): forestomach: papilloma, squamous cell carcinoma; glandular stomach: adenoma, ade | outcome (Carcinogen: DIETHYLNITROSAMINE, 55-18-5, N-METHYLNITROSOUREA, 684-93-5, 1,2-DIMETHYLHYDRAZINE, 540-73-8, N-BUTYL-N-(4-HYDROXYBUTYL)N, Carcinogen: DIETHYLNITROSAMINE, 55-18-5, N-METHYLNITROSOUREA, 684-93-5, 1,2-DIMETHYLHYDRAZINE, 540-73-8, N-BUTYL-N-(4-HYDROXYBUTYL)N, Doses [Carcinogen]: 100 MG/KG BW DEN ONCE FOLLOWED BY 20 MG/KG BW MNU 2/WK FOR 2 WK THEN 40 MG/KG BW DMH 2/WK FOR THE NEXT 2WK, 0.05% BBN IN, Doses [Promoter]: 0, 0.16% IN DIET FOR 24 WK BEGINNING POST CARCINOGEN TREATMENT (STUDY DURATION: 28 WK), Route [Carcinogen]: INTRAPERITONEAL, INTRAPERITONEAL, SUBCUTANEOUS, ORAL, Route [Carcinogen]: INTRAPERITONEAL, INTRAPERITONEAL, SUBCUTANEOUS, ORAL, Route [Promoter]: ORAL, Species: RAT, Strain/Sex: F344/MALE): forestomach: papilloma | outcome (Carcinogen: DIETHYLNITROSAMINE, 55-18-5, N-METHYLNITROSOUREA, 684-93-5, DIHYDROXY-DI-N- PROPYLNITROSAMINE, 53609-64-6, Carcinogen: DIETHYLNITROSAMINE, 55-18-5, N-METHYLNITROSOUREA, 684-93-5, DIHYDROXY-DI-N- PROPYLNITROSAMINE, 53609-64-6, Doses [Carcinogen]: 100 MG/KG/BW DEN ONCE AT BEGINNING OF STUDY THEN 20 MG/KG/BW MNU ONCE ON D 2, 5, 8 AND 11 OF STUDY FOLLOWED BY 0.1% DHPN, Doses [Promoter]: 0, 0.8% IN DIET BEGINNING POST CARCINOGEN TREATMENT AND CONTINUING FOR DURATION OF STUDY (STUDY DURATION: 20 WK), Route [Carcinogen]: INTRAPERITONEAL, INTRAPERITONEAL, ORAL, Route [Carcinogen]: INTRAPERITONEAL, INTRAPERITONEAL, ORAL, Route [Promoter]: ORAL, Species: RAT, Strain/Sex: F344/MALE): forestomach: squamous cell papilloma | outcome (Carcinogen: METHYL-N-AMYLNITROSAMINE, 13256-07-0, Doses [Carcinogen]: 25 MG/KG AT WK 0, WK 1, AND WK 2 (TOTAL 3 TREATMENTS), Doses [Promoter]: 0, 0.8% IN DIET FOR 49 WK BEGINNING 1 WK POST CARCINOGEN DOSE (STUDY DURATION: 5 WK), Route [Carcinogen]: INTRAPERITONEAL, Route [Promoter]: ORAL, Species: RAT, Strain/Sex: F344/MALE): tongue: papilloma; esophagus: carcinoma | outcome (Carcinogen: N-METHYL-N'-NITRO-N-NITROSOGUANIDINE, 70-25-7, Doses [Carcinogen]: 150 MG/KG ONCE, Doses [Promoter]: 0, 0.8% IN DIET BEGINNING 1 WK POST CARCINOGEN DOSE (STUDY DURATION: 52 WK), Route [Carcinogen]: GAVAGE, Route [Promoter]: ORAL, Species: RAT, Strain/Sex: F344): forestomach: carcinoma; glandular stomach: adenocarcinoma | outcome (Carcinogen: N-METHYL-N-NITROSOUREA, 684-93-5, Doses [Carcinogen]: 120 PPM IN DRINKING WATER FOR 1-WK PERIODS EVERY OTHER WEEK FOR A TOTAL OF 3 WK OF TREATMENT, Doses [Promoter]: 0, 0.05, 0.2, 0.8% IN DIET FOR 30 WK BEGINNING POST CARCINOGEN TREATMENT (STUDY DURATION: 35 WK), Doses [Promoter]: 0, 0.05, 0.2, 0.8% IN DIET FOR 30 WK BEGINNING POST CARCINOGEN TREATMENT (STUDY DURATION: 35 WK), Route [Carcinogen]: ORAL, Route [Promoter]: ORAL, Species: MOUSE, Strain/Sex: BALB/MALE): glandular stomach: adenoma | outcome (Carcinogen: N-METHYL-N-NITROSOUREA, 684-93-5, Doses [Carcinogen]: 120 PPM IN DRINKING WATER FOR 1-WK PERIODS EVERY OTHER WK FOR A TOTAL OF 3 WK OF TREATMENT, Doses [Promoter]: 0, 0.8% IN DIET FOR 30 WK BEGINNING POST CARCINOGEN TREATMENT (STUDY DURATION: 35 WK), Route [Carcinogen]: ORAL, Route [Promoter]: ORAL, Species: MOUSE, Strain/Sex: BALB/MALE): glandular stomach: adenocarcinoma

CCCC1(CCCCCCCCCCCC(=O)OC2C(C)C3(O)C(C=C(CO)CC4(O)C(=O)C(C)=CC43)C3C(C)(C)C23OC(C)=O)OCC(C)(C)N1[O] (centres undefined)
outcome (Carcinogen: 7,12-DIMETHYLBENZ[A]ANTHRACENE, 57-97-6, Doses [Carcinogen]: 100 NMOL ONCE, Doses [Promoter]: 0, 20 NMOL 2/WK FOR 24 WK BEGINNING 1 WK POST CARCINOGEN DOSE (STUDY DURATION: 25 WK), Route [Carcinogen]: DERMAL, Route [Promoter]: DERMAL, Species: MOUSE, Strain/Sex: NMRI/FEMALE): skin: tumor

CC/C(=C(/CC)c1ccc(O)cc1)c1ccc(O)cc1
outcome (Carcinogen: IRRADIATION, Doses [Carcinogen]: 260 CGY GAMMA RAYS AT DAY 20 OF PREGNANCY, Doses [Promoter]: 0, 0.376 UG/D RELEASED FROM PELLET IMPLANTED AFTER NURSING DISCONTINUED, PELLET REPLACED EVERY 8 WK (STUDY DURATION: 1 Y, Route [Carcinogen]: DERMAL, Route [Promoter]: IMPLANT, Species: RAT, Strain/Sex: WISTAR/FEMALE): mammary gland: tumor | outcome (Carcinogen: Sodium arsenite, 7781-46-5, Doses [Carcinogen]: 0, 85 ppm to dams on gestational days 8-18, Doses [Promoter]: 2 ug on days 1, 2, 3, 4, and 5 of life, study duration for pups 90 wks, Route [Carcinogen]: Drinking water, days 8-18 of gestation (dams), Route [Promoter]: Subcutaneous (to offspring), Species: Mouse, Strain/Sex: C3H/HeNCr, (25 Male and female offspring/Group of dams exposed to sodium arsenite)): males: urinary bladder: tumors, liver: tumors females: urogenital tumors | outcome (Carcinogen: URETHANE, 51-79-6, Doses [Carcinogen]: 500 MG/KG BW ONCE (STUDY DURATION: 19 WK), Doses [Promoter]: 5 MG/KG BW 1X/WK FOR 18 WK BEGINNING 1 WK POST LAST CARCINOGEN DOSE (STUDY DURATION: 19 WK), Route [Carcinogen]: INTRAPERITONEAL, Route [Promoter]: INTRAMUSCULAR, Species: MOUSE, Strain/Sex: KUNMING/FEMALE): liver: tumor

c1ccc2c(c1)cc1ccc3cccc4ccc2c1c34
outcome (Carcinogen: BENZO[A]PYRENE [50-32-8], Doses [Carcinogen]: 8 MMOL/MOUSE 3X/WK FOR 25 WKS (STUDY DURATION: 30 WKS), Doses [Promoter]: UVA 40 KJ/M2 FOR 25 WKS 2 HR AFTER CARCINOGEN TREATMENT (STUDY DURATION: 30 WKS), Route [Carcinogen]: DERMAL, Route [Promoter]: IRRADIATION TO SKIN, Species: MOUSE, Strain/Sex: SKH-1/FEMALE (20/GROUP)): skin: tumor incidence and multiplicity increased

CCOc1ccc2c(c1)C(C)=CC(C)(C)N2
outcome (Carcinogen: 1,2-DIMETHYLHYDRAZINE, 540-73-8, Doses [Carcinogen]: 20 MG/KG 1/WK FOR 4 WK, Doses [Promoter]: 0, 0.8% IN DIET FOR 36 WK (STUDY DURATION: 40 WK), Route [Carcinogen]: SUBCUTANEOUS, Route [Promoter]: ORAL, Species: RAT, Strain/Sex: F344/MALE): colon: tumor | outcome (Carcinogen: N-BUTYL-N-(4-HYDROXYBUTYL)NITROSAMINE, 3817-11-6, Doses [Carcinogen]: 0.05% IN DRINKING WATER FOR 4 WK, Doses [Promoter]: 0, 0.8% IN DIET FOR 32 WK (STUDY DURATION: 36 WK), Route [Carcinogen]: ORAL, Route [Promoter]: ORAL, Species: RAT, Strain/Sex: F344/MALE): urinary bladder: papilloma, carcinoma | outcome (Carcinogen: N-BUTYL-N-(4-HYDROXYBUTYL)NITROSAMINE, 3817-11-6, Doses [Carcinogen]: 0.05% IN DRINKING WATER FOR 4 WK, Doses [Promoter]: 0, 0.8% IN DIET FOR 32 WK BEGINNING POST CARCINOGEN (STUDY DURATION: 36 WK), Route [Carcinogen]: ORAL, Route [Promoter]: ORAL, Species: RAT, Strain/Sex: F344/MALE): bladder: papilloma | outcome (Carcinogen: N-ETHYL-N-(HYDROXYETHYL)NITROSAMINE, 13147-25-6, Doses [Carcinogen]: 0.1% IN DRINKING WATER FOR 2 WK, Doses [Promoter]: 0, 0.8% IN DIET FOR 29 WK (STUDY DURATION: 31 WK), Route [Carcinogen]: ORAL, Route [Promoter]: ORAL, Species: RAT, Strain/Sex: F344/MALE): kidney: adenoma

Cc1ccc(O)cc1C
outcome [1]: integumentary system (skin)

CCCCCCCC/C=C/CCCCCCCC(=O)OCCOCC(OCCO)C1OCC(OCCO)C1OCCO (centres undefined)
outcome [1]: integumentary system (skin)

Clc1cc(Cl)c(-c2ccc(Cl)c(Cl)c2Cl)cc1Cl
outcome (Carcinogen: N-NITROSODIMETHYLAMINE, 62-75-9, Doses [Carcinogen]: 5 MG/KG IN SALINE ON POSTNATAL DAY 4, Doses [Promoter]: 0, 20 MG/KG IN OLIVE OIL ON POSTNATAL DAY 8 (STUDY DURATION: 16 WK), Route [Carcinogen]: INTRAPERITONEAL, Route [Promoter]: GAVAGE, Species: MOUSE, Strain/Sex: SWISS/MALE, FEMALE): lung: tumor
